In PubChem BioAssay (NCI):
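Compound exposure: 48 hours, 5 concentrations, 96-well plates. Here, GI50 denotes the concentration required for 50% inhibition of growth. TGI denotes the concentration required for complete inhibition of growth.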

Assays:
Test in all cases: NCI tumour cell line growth inhibition, 48 h
[1] = test system: DLD-1 colon
[2] = test system: KM20L2 colon
[3] = test system: RXF-631 renal
[4] = test system: DMS 273 small cell lung
[5] = test system: HOP-18 NSCLC
[6] = test system: P388 leukemia
[7] = test system: SN12K1 renal
[8] = test system: P388/ADR leukemia
[9] = test system: XF 498 CNS
[10] = test system: MDA-N

| Compound | TGI [1] [µM] | TGI [2] [µM] | TGI [3] [µM] | TGI [4] [µM] | TGI [5] [µM] | TGI [9] [µM] | also measured |
| --- | --- | --- | --- | --- | --- | --- | --- |
| CC(=O)NC1C(OCc2ccccc2)OC(COC(=O)CCCCCNc2ccc([N+](=O)[O-])c3[nH]c4ccc(O)cc4c(=O)c23)C(O)C1OC(C)C(=O)N[C@@H](C)C(=O)N[C@H](CCC(=O)OCc1ccccc1)C(N)=O (some centres not stated) | 10 | 0.893 | 5.35 | 6.03 | 10.6 | – | – |
| C/C(=N\NS(=O)(=O)c1ccc(C)cc1)c1c(O)cc(C)oc1=O | > 100 | > 100 | – | – | > 100 | – | – |
| NC1=NC(c2ccccc2)CC(c2cc(Cl)cc(Br)c2O)=N1 (configuration not stated) | 25.8 | 30.8 | 39.8 | 23.2 | 37.4 | 33.9 | TGI [6]: > 20.7 µM; TGI [7]: 28.3 µM; TGI [8]: > 27.8 µM |
| COc1cc2ccc(/C(C)=N/OC(C)=O)cc2cc1OC | – | > 100 | > 100 | > 100 | > 100 | > 100 | – |
| C=CCCC(C)N(C(=O)OC(C)(C)C)S(=O)(=O)c1ccc(C)cc1 (configuration not stated) | > 100 | > 100 | – | > 100 | – | > 100 | – |
| CCCC1C(=O)C(CC)Cc2c(OC)ccc(OC)c21 (configuration not stated) | > 100 | – | > 100 | > 100 | – | > 100 | – |
| C[C@]12CC(C#N)C(=O)C(O)=C1CC[C@@H]1C2CC[C@@]2(C)C1CC[C@@H]2O (some centres not stated) | > 100 | > 100 | – | > 100 | – | > 100 | – |
| O=C(O)CN(c1ccccc1)S(=O)(=O)c1ccc(Cl)cc1 | > 100 | > 100 | > 100 | > 100 | > 100 | – | – |
| S=P(c1ccccc1)(c1ccccc1)C1(C2(P(=S)(c3ccccc3)c3ccccc3)CC2)CC1 | > 100 | > 100 | > 100 | > 100 | – | > 100 | – |
| Cc1ccc(NC(=O)CC/C(CC(=O)c2ccc(Cl)cc2)=N\NC(=O)C(=O)NN)cc1C | > 100 | > 100 | – | > 100 | > 100 | > 100 | – |
| O=C(c1cc2c(C(F)(F)F)onc2c2ccccc12)C(F)(F)F | > 100 | 25.1 | 80.1 | 16.1 | > 100 | – | – |
| CCN(CC)CCOC(=O)/C(=C/c1ccc(OC)cc1)c1cc(OC)c(OC)c(OC)c1 | > 100 | 24.6 | > 100 | 23.4 | > 100 | – | – |
| CN(C1=NS(=O)(=O)N=C(N(C)c2ccccc2)O1)c1ccccc1 | – | – | – | – | – | – | TGI [10]: 32.6 µM |
| Cc1[nH]c2ccccc2c1C1CC(=O)NC1=O (configuration not stated) | > 100 | > 100 | – | > 100 | – | – | – |
| CC1=C(/C=C/C2=CC(=C\C(=O)O)/CC(C3=C(C)CCCC3(C)C)C2)C(C)(C)CCC1 (configuration not stated) | 24.5 | – | 24.7 | 27.7 | 27 | 27.4 | – |
| COc1cc([C@@H]2c3cc4c(cc3[C@@H](NCc3ccc(C#N)cc3)C3COC(=O)[C@@H]32)OCO4)cc(OC)c1O (some centres not stated) | 5.33 | 3.99 | – | 2.49 | > 100 | 2.85 | – |
| O=C1CC2C(=O)C1C(C(=O)O)C2C(=O)O (configuration not stated) | – | – | – | – | – | – | TGI [10]: > 100 µM |
| N#Cc1ccc(-c2nc3ccc(Cl)cc3[nH]2)cc1 | – | – | – | – | – | – | TGI [10]: > 100 µM |
| CC1=C2C(=O)C(C)(C)C=C2C(=O)[C@](C)(O)C12CC2 | > 1 | > 1 | – | > 0.464 | > 1 | > 1 | – |
| C[C@@H](NC1CCC[C@@H]1O)c1ccccc1 (some centres not stated) | > 100 | > 100 | – | > 100 | > 100 | > 100 | – |
| c1ccc2c(c1)nnn2CNc1ccc(N2CCOCC2)cc1 | > 100 | > 100 | – | > 100 | > 100 | > 100 | – |

| Compound | TGI [1] [µM] | TGI [2] [µM] | TGI [3] [µM] | TGI [4] [µM] | TGI [5] [µM] | TGI [9] [µM] | also measured |
| --- | --- | --- | --- | --- | --- | --- | --- |
| Cc1ccc(C(=O)CCC2C(=O)CC(C)(C)CC2=O)cc1 | – | – | – | – | – | – | TGI [10]: > 100 µM |
| O=C(N/C(=C\c1ccc([N+](=O)[O-])cc1)c1nc2ccc(Cl)cc2[nH]1)c1ccccc1 | 31.3 | 50.9 | – | – | – | 46.5 | – |
| CC(C)Cc1ccc(C(C)/C=C2\CCC(CN3CCCC3)C2=O)cc1 (configuration not stated) | 6.67 | 33.3 | 49.9 | 14.5 | 33.4 | 22 | – |
| COc1ccc(-c2nc(N)c3ncn(C4OC(CO)C(O)C4O)c3n2)cc1 (configuration not stated) | – | – | – | – | – | – | TGI [10]: > 100 µM |
| CN(C)Cc1cccc(CN(C)C)[c]1[Sn]([Br])([c]1ccccc1)[c]1ccccc1 | – | – | – | – | – | – | GI50 [10]: 16.6 µM; TGI [10]: 38.8 µM |
| CC1OC(O[C@H]2/C=C/C=C/C=C/C=C/C=C/C=C/C=C/[C@H](C)[C@@H](O)[C@@H](C)[C@H](C)OC(=O)C[C@H](O)C[C@H](O)CC[C@@H](O)[C@H](O)C[C@H](O)C[C@]3(O)C[C@H](O)[C@@H](C(=O)O)[C@H](C2)O3)C(O)C(N)C1O (some centres not stated) | – | – | – | – | – | – | TGI [10]: 24.4 µM |
| CCCCCCCC(=O)OCC1OC(n2cc(F)c(=O)[nH]c2=O)C(NC(=O)OCc2ccccc2)C(OC(=O)CCCCCCC)C1O (configuration not stated) | – | > 100 | – | 54.7 | – | – | – |
| COc1ccc(C(=O)C(Br)C(Br)C(=O)O)cc1 (configuration not stated) | – | – | – | – | – | – | TGI [10]: > 100 µM |
| CC1Cc2c(N)nc(N3CCOCC3)nc2NC1=O (configuration not stated) | > 100 | > 100 | – | > 100 | > 100 | – | – |
| CC(=O)O[C@H]1CCC2[C@@H]3CCC4Nc5c(cnn5-c5ccccc5)C[C@]4(C)C3CC[C@@]21C (some centres not stated) | > 100 | 37.1 | 42.2 | 14.4 | 86.5 | 18.8 | – |
| O=C1NC(=O)C(=O)C(c2nc3ccccc3s2)C1=O | > 100 | > 100 | – | > 100 | > 100 | > 100 | – |
| CCN(CC)C(=O)CNC(=O)OC(C)(C)C | > 100 | > 100 | – | > 100 | – | – | – |
| CC(C(=O)c1ccccc1)C1(O)C(=O)Nc2ccccc21 (configuration not stated) | > 100 | > 100 | > 100 | > 100 | > 100 | – | – |
| COC1CC2C=CC3C4OC2(/C(C)=C/C(C)C(C(C)O)OC1=O)C3C(O)C(C)C4OC(=O)c1ccc[nH]1 (configuration not stated) | – | – | – | – | – | – | TGI [10]: > 100 µM |
| NCC1OC(n2cnc3c(=O)[nH]c(N)nc32)C(O)C1O (configuration not stated) | – | – | – | – | – | – | TGI [10]: > 100 µM |
| O=C(COc1ccc(Cl)cc1)N1N=C(c2ccc([N+](=O)[O-])o2)CC1(O)c1ccccc1 (configuration not stated) | > 100 | 30.4 | 24.9 | 18.6 | – | 22.3 | – |
| N#Cc1nn(C2OC(COC(=O)c3ccccc3)C(OC(=O)c3ccccc3)C2OC(=O)c2ccccc2)c2nc[nH]c(=O)c12 (configuration not stated) | – | – | – | – | – | – | TGI [10]: > 100 µM |
| CC(Oc1ccc(OCC2CCCCC2)cc1)C(=O)O (configuration not stated) | > 100 | – | – | > 100 | > 100 | > 100 | – |
| CCOC(=O)CNC1C(NC(C)=O)C(OC)OC2COC(c3ccccc3)OC21 (configuration not stated) | – | > 100 | > 100 | > 100 | > 100 | – | – |
| CC(C)c1cccc(C(C)C)c1N=C(N)C#N | > 65.6 | > 100 | > 100 | > 56.9 | > 100 | > 100 | – |
